Measured values published in US20250304563A1, “ACTIVATORS OF EFFECTOR T CELLS” (Orum Therapeutics, Inc., priority 2022, published 2025).

Assays:
Human primary T cells [1] = assay: T cell activation: secreted IL-2; type: cell-based; details: 48 hours, fold over background normalized to Compound 141A; for IL-2 1 nM: 1 nM compound; for IL-2 10 nM: 10 nM compound; for IL-2 100 nM: 100 nM compound
Procedure, shortened: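 Negatively selected human primary T cells on plate-bound anti-CD3 (OKT3) in serum-free medium, treated 48 h at 37° C. with serial compound dilutions in duplicate. Secreted IL-2 by bead-based cytometric assay, expressed as fold over anti-CD3/CD28 background normalized to a reference compound, then binned into ranges.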

Human primary T cells [2] = assay: T cell activation: secreted IFN-y; type: cell-based; details: 48 hours, fold over background normalized to Compound 141A; for IFN-y 1 nM: 1 nM compound; for IFN-y 10 nM: 10 nM compound; for IFN-y 100 nM: 100 nM compound
Procedure, shortened: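 Negatively selected primary human T cells (1×10^5/well, serum-free XVivo-15) on plates coated with 10 μg/mL anti-CD3 were exposed to serial compound dilutions for 48 h at 37 °C. Secreted IFN-γ was measured by cytometric bead array and expressed as fold over anti-CD3/CD28 background, normalized to a reference compound and binned into ranges A–D.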

Human primary T cells [3] = assay: T cell activation: CD69 surface expression by flow cytometry; type: cell-based; details: fold over anti-CD3 stimulated background normalized to Compound 141A; for CD69 10 nM: 10 nM compound; for CD69 100 nM: 100 nM compound; for CD69 1 nM: 1 nM compound
Procedure, shortened: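 Negatively selected human primary T cells (1×10^5/well, XVivo-15) were captured on plates coated with 10 μg/mL anti-CD3 (OKT3). They were exposed to serially diluted compounds in duplicate for 48 h at 37° C. CD69 was read by flow cytometry as fold over anti-CD3-only background, normalized to Compound 141A and binned into ranges.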

[4] = molecular target: Cbl-b (36-427 aa truncated form, N-terminus Avi-tag) (Homo sapiens (Human), UniProt Q13191); assay: Cbl-b binding: TR-FRET displacement of BODIPY-FL probe
Chain of Cbl-b (36-427 aa truncated form, N-terminus Avi-tag) (Q13191 36-427): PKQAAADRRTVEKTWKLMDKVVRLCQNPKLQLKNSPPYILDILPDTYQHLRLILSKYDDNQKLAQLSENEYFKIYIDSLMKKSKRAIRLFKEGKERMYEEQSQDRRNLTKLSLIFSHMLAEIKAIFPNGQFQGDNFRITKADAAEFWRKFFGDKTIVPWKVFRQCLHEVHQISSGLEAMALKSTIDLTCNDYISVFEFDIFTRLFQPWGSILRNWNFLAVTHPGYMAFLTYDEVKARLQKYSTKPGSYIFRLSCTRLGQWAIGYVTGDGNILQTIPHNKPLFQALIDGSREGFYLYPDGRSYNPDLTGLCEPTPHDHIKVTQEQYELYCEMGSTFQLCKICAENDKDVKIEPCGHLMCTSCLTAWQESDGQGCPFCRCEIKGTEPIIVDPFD
Procedure, shortened: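 Avi-tagged Cbl-b 36-427 preincubated 1 h at RT with streptavidin-terbium in HEPES pH 7.5/NaCl/Triton/BSA/TCEP buffer, then 1 uM BODIPY-FL inhibitor probe plus compound added for 1 h. Probe displacement read by TR-FRET; IC50 fitted.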

SMILES | IL-2 1 nM (Human primary T cells [1]) | IL-2 10 nM (Human primary T cells [1]) | IL-2 100 nM (Human primary T cells [1]) | IFN-y 1 nM (Human primary T cells [2]) | IFN-y 10 nM (Human primary T cells [2]) | IFN-y 100 nM (Human primary T cells [2]) | CD69 10 nM (Human primary T cells [3]) | CD69 100 nM (Human primary T cells [3]) | IC50 [4] [nM] | CD69 1 nM (Human primary T cells [3])
CCNc1cc(C2(Cc3nncn3C)COC2)cc(N2Cc3c(cc(CN4CCC(CSC)CC4)cc3C(F)(F)F)C2=O)n1 [Compound 106, 2-[6-(ethylamino)-4-{3-[(4-methyl-1,2,4-triazol-3-yl)methyl]oxetan-3-yl}pyridin-2-yl]-6-({4-[(methylsulfanyl)methyl]piperidin-1-yl}methyl)-4-(trifluoromethyl)-3H-isoindol-1-one] | C (values between 0.10 and 0.30: range “C”) | C (values between 0.10 and 0.30: range “C”) | B (values between 0.31 and 0.79: range “B”) | C (values between 0.10 and 0.30: range “C”) | C (values between 0.10 and 0.30: range “C”) | B (values between 0.31 and 1.00: range “B;”) | C (values between 0.30 and 0.60: range “C”) | B (values between 0.61 and 0.80: range “B;”) | 100 to 1000 | –
C[C@H]1CCCN(Cc2cc3c(c(C(F)(F)F)c2)CN(c2cc(C4(Cc5nncn5C)COC4)cc(C#N)n2)C3=O)C1 [Compound 115, 4-{3-[(4-methyl-1,2,4-triazol-3-yl)methyl]oxetan-3-yl}-6-(6-{[(3S)-3-methylpiperidin-1-yl]methyl}-1-oxo-4-(trifluoromethyl)-3H-isoindol-2-yl)pyridine-2-carbonitrile] | C (values between 0.10 and 0.30: range “C”) | C (values between 0.10 and 0.30: range “C”) | B (values between 0.31 and 0.79: range “B”) | C (values between 0.10 and 0.30: range “C”) | C (values between 0.10 and 0.30: range “C”) | B (values between 0.31 and 1.00: range “B;”) | C (values between 0.30 and 0.60: range “C”) | B (values between 0.61 and 0.80: range “B;”) | 100 to 1000 | –
CCNc1cc(C2(Cc3nncn3C)COC2)cc(N2Cc3c(SC)cc(CN4CCCCC4)cc3C2=O)n1 [Compound 175, 2-[6-(ethylamino)-4-{3-[(4-methyl-1,2,4-triazol-3-yl)methyl]oxetan-3-yl}pyridin-2-yl]-4-(methylsulfanyl)-6-(piperidin-1-ylmethyl)-3H-isoindol-1-one] | D (values between 0.01 and 0.09: range “D.”) | D (values between 0.01 and 0.09: range “D.”) | C (values between 0.10 and 0.30: range “C”) | C (values between 0.10 and 0.30: range “C”) | B (values between 0.31 and 1.00: range “B;”) | B (values between 0.31 and 1.00: range “B;”) | C (values between 0.30 and 0.60: range “C”) | B (values between 0.61 and 0.80: range “B;”) | 1 to 5 | C (values between 0.30 and 0.60: range “C”)
CCNc1cc(C2(c3nncn3C)CC(C)C2)cc(N2Cc3c(SC)cc(CN4CCC[C@H](C)C4)cc3C2=O)n1 (stereo partly drawn) [Compound 181, 2-[6-(ethylamino)-4-[(1r,3s)-3-methyl-1-(4-methyl-1,2,4-triazol-3-yl)cyclobutyl]pyridin-2-yl]-6-{[(3S)-3-methylpiperidin-1-yl]methyl}-4-(methylsulfanyl)-3H-isoindol-1-one] | D (values between 0.01 and 0.09: range “D.”) | C (values between 0.10 and 0.30: range “C”) | A (between 0.80 and 1.40: range “A”) | B (values between 0.31 and 1.00: range “B;”) | B (values between 0.31 and 1.00: range “B;”) | A (fold over background between 1.10 and 2.00: range “A”) | B (values between 0.61 and 0.80: range “B;”) | X (fold over background values between 1.11 and 1.6: range “X”) | 1 to 5 | C (values between 0.30 and 0.60: range “C”)
CCNc1cc(C2(Cc3nncn3C)COC2)cc(N2Cc3c(cc(C(CSC)N4CCC[C@H](C)C4)cc3C(F)(F)F)C2=O)n1.O=C(O)C(F)(F)F (stereo partly drawn) [Compound 117, 2-[6-(ethylamino)-4-{3-[(4-methyl-1,2,4-triazol-3-yl)methyl]oxetan-3-yl}pyridin-2-yl]-6-{1-[(3S)-3-methylpiperidin-1-yl]-2-(methylsulfanyl)ethyl}-4-(trifluoromethyl)-3H-isoindol-1-one; trifluoroacetic acid] | C (values between 0.10 and 0.30: range “C”) | C (values between 0.10 and 0.30: range “C”) | C (values between 0.10 and 0.30: range “C”) | C (values between 0.10 and 0.30: range “C”) | C (values between 0.10 and 0.30: range “C”) | B (values between 0.31 and 1.00: range “B;”) | C (values between 0.30 and 0.60: range “C”) | B (values between 0.61 and 0.80: range “B;”) | 20 to 100 | –
C[C@H]1CCCN(Cc2cc3c(c(C(F)(F)F)c2)CN(c2cc(C4(Cc5nncn5C)COC4)cc(OCCOCCOCCOCCNC(=O)CCN4C(=O)C=CC4=O)n2)C3=O)C1 [Compound 201, 3-(2,5-dioxopyrrol-1-yl)-N-{2-[2-(2-{2-[(4-{3-[(4-methyl-1,2,4-triazol-3-yl)methyl]oxetan-3-yl}-6-(6-{[(3S)-3-methylpiperidin-1-yl]methyl}-1-oxo-4-(trifluoromethyl)-3H-isoindol-2-yl)pyridin-2-yl)oxy]ethoxy}ethoxy)ethoxy]ethyl}propanamide] | C (values between 0.10 and 0.30: range “C”) | C (values between 0.10 and 0.30: range “C”) | C (values between 0.10 and 0.30: range “C”) | C (values between 0.10 and 0.30: range “C”) | C (values between 0.10 and 0.30: range “C”) | C (values between 0.10 and 0.30: range “C”) | C (values between 0.30 and 0.60: range “C”) | C (values between 0.30 and 0.60: range “C”) | 1 to 5 | –
CC(C)C(C#N)Oc1cc(C2(Cc3nncn3C)COC2)cc(N2Cc3c(cc(CN4CCC[C@H](C)C4)cc3C(F)(F)F)C2=O)n1.O=CO (stereo partly drawn) [Compound 123, 3-methyl-2-[(4-{3-[(4-methyl-1,2,4-triazol-3-yl)methyl]oxetan-3-yl}-6-(6-{[(3S)-3-methylpiperidin-1-yl]methyl}-1-oxo-4-(trifluoromethyl)-3H-isoindol-2-yl)pyridin-2-yl)oxy]butanenitrile; formic acid] | C (values between 0.10 and 0.30: range “C”) | C (values between 0.10 and 0.30: range “C”) | B (values between 0.31 and 0.79: range “B”) | C (values between 0.10 and 0.30: range “C”) | C (values between 0.10 and 0.30: range “C”) | B (values between 0.31 and 1.00: range “B;”) | C (values between 0.30 and 0.60: range “C”) | B (values between 0.61 and 0.80: range “B;”) | 1 to 5 | –
